Laboratory results from ChEMBL document CHEMBL3046377, “Bioactive ellagitannins from Cunonia macrophylla, an endemic Cunoniaceae from New Caledonia” (Phytochemistry, 2005).

Assays:
Corynebacterium accolens [1] = assay: Antimicrobial activity against Corynebacterium accolens at 100 ug after 24 hr by disk diffusion method; type: functional; conditions: read-out: DIZ
Candida albicans [2] = assay: Antimicrobial activity against Candida albicans at 100 ug after 24 hr by disk diffusion method; type: functional; conditions: read-out: DIZ
[3] = Inhibition of xanthine oxidase assessed as conversion of xanthine to uric acid incubated for 3 min
[4] = test system: Pectobacterium carotovorum; assay: Antimicrobial activity against Pectobacterium carotovorum at 100 ug after 24 hr by disk diffusion method; type: functional; conditions: read-out: DIZ
Staphylococcus aureus [5] = assay: Antimicrobial activity against Staphylococcus aureus at 100 ug after 24 hr by disk diffusion method; type: functional; conditions: read-out: DIZ
Corynebacterium accolens [6] = assay: Antimicrobial activity against Corynebacterium accolens at 10 ug after 24 hr by disk diffusion method; type: functional, organism-based
Staphylococcus aureus [7] = assay: Antimicrobial activity against Staphylococcus aureus at 10 ug after 24 hr by disk diffusion method; type: functional, organism-based
[8] = test system: Pectobacterium carotovorum; assay: Antimicrobial activity against Pectobacterium carotovorum at 10 ug after 24 hr by disk diffusion method; type: functional, organism-based
Candida albicans [9] = assay: Antimicrobial activity against Candida albicans at 20 ug after 24 hr by disk diffusion method; type: functional, organism-based

| Compound | zone of inhibition at 100 µg/disc (Corynebacterium accolens [1]) [mm] | zone of inhibition at 100 µg/disc (Candida albicans [2]) [mm] | IC50 [3] [µM] | zone of inhibition at 100 µg/disc [4] [mm] | zone of inhibition at 100 µg/disc (Staphylococcus aureus [5]) [mm] | inhibition zone (IZ) (Corynebacterium accolens [6]) [mm] | inhibition zone (IZ) (Staphylococcus aureus [7]) [mm] | inhibition zone (IZ) [8] [mm] | inhibition zone (IZ) (Candida albicans [9]) [mm] |
| --- | --- | --- | --- | --- | --- | --- | --- | --- | --- |
| O=C(O)C[C@@H]1C(=O)O[C@H]2[C@@H]3OC(=O)c4cc(O)c(O)c(O)c4-c4c(cc(O)c(O)c4O)C(=O)OC[C@H]2O[C@@H](OC(=O)c2cc(O)c(O)c(O)c2)[C@@H]3OC(=O)c2cc(O)c(O)c3c2[C@H]1[C@H](O)C(=O)O3 [CHEBULAGIC ACID] | 10 | 12 | 48 | 19 | 11 | – | – | – | – |
| O=C(O[C@@H]1O[C@@H]2COC(=O)c3cc(O)c(O)c(O)c3-c3c(cc(O)c(O)c3O)C(=O)O[C@H]([C@H]1O)[C@@H]2O)c1cc(O)c(O)c(O)c1 [CORILAGIN] | 12 | 12 | > 100 | 20 | 12 | – | – | – | – |
| O=c1oc2c(O)c(O[C@@H]3OC[C@@H](O)[C@H](O)[C@H]3O)cc3c(=O)oc4c(O)c(O)cc1c4c23 [ELLAGIC ACID 4-O-XYLOPYRANOSIDE] | 0 | 0 | 4.7 | 12 | 0 | – | – | – | – |
| O=c1oc2c(O)c(O)cc3c(=O)oc4c(O)c(O)cc1c4c23 [ELLAGIC ACID] | 12 | 10 | 9.3 | 15 | 0 | – | – | – | – |
| O=C(O)c1cc(O)c(O)c(O)c1 [GALLIC ACID] | 7 | 7 | 41.7 | 13 | 7 | – | – | – | – |
| O=C(Oc1c(O)cc2c(c1O)-c1c(cc(O)c(O)c1O)C(=O)OC[C@H]1O[C@@H](OC(=O)c3cc(O)c(O)c(O)c3)[C@H](O)[C@@H](OC2=O)[C@@H]1O)c1cc(O)c(O)c(O)c1 [MALLOREPANIN] | 10 | 10 | > 100 | 15 | 10 | – | – | – | – |
| O=C(O[C@@H]1O[C@@H]2COC(=O)c3cc(O)c(O)c(O)c3-c3c(cc(Oc4c(C(=O)O)cc(O)c(O)c4O)c(O)c3O)C(=O)O[C@H]([C@H]1O)[C@@H]2O)c1cc(O)c(O)c(O)c1 [MALLOTINIC ACID] | 9 | 9 | > 100 | 13 | 9 | – | – | – | – |
| O=c1c(O)c(-c2ccc(O)c(O)c2)oc2cc(O)cc(O)c12 [QUERCETIN] | – | – | 10 | – | – | – | – | – | – |
| GENTAMICIN SULFATE | – | – | – | – | – | 28 | 14 | 21 | – |
| NYSTATIN | – | – | – | – | – | – | – | – | 11 |
